Results on 24 molecules are retold here after patent US12116356B2, “N-heterocyclic five-membered ring-containing capsid protein assembly inhibitor, pharmaceutical composition thereof, and use thereof” (CHIA TAI TIANQING PHARMACEUTICAL GROUP CO., LTD., priority 2018, dated 2024).

Like-named read-outs stand apart in the source and are kept apart here.

Format in all cases: cell-based
One data set has as its system HBV DNA in HepAD38 cells. Put plainly: In vitro cell HBV DNA inhibitory activity (anti-HBV activity) in HepAD38 cells. As to conditions: Hepatitis B virus. Here is the method:
(§1) A bottle of HepG2.2.15 or HepAD38 cells in good exponential growth state was taken, washed once by adding 5 mL PBS, and then thereto was added 3 mL trypsin. After digesting at room temperature for 5 min, 2 mL trypsin was discarded, and then the sample was placed in a cell culture incubator and digested for 10 min. The cells were taken out from time to time and observed under a microscope (whether the cells were individually round and there was no adhesion between the cells). 10 mL complete medium was added to terminate the digestion. After pipetting into a single cell suspension, 10 μL of the cell suspension was taken out for cell counting with a cell counter, and then diluted with a complete medium and adjusted to a cell density of 1*10^5 cells/mL. Then the cell suspension was seeded at 1 mL/well in a 24-well plate with a multi-channel pipette (the 24-well plate was coated with 50 μg/mL Collagen I solution in advance), and cultured in a constant temperature CO2 incubator for 48 h.
(§2) Different compounds dissolved in DMSO were subjected to two-fold gradient dilution (10 concentrations in total) with complete medium. The compound was added, and fresh medium containing the compound was used to replace the spent medium every 72 hours. The cells were treated with the compound for 6 days. After the supernatant was siphoned off, 300 μL lysate (10 mM Tris-HCl, 1 mM EDTA, and 1% NP-40) was added to each well. After lysing at room temperature for 10 min, DNA was extracted, and HBV DNA in the intracellular viral capsid was measured by real-time fluorescence quantitative PCR. The inhibition rate was calculated based on the Ct value, and the EC50 value was calculated by the four-parameter method.

The subject of data set [1] is HBV DNA in HepG2.2.15 cells. Put plainly: In vitro cell HBV DNA inhibitory activity (anti-HBV activity) in HepG2.2.15 cells. Particulars: Hepatitis B virus. Here is the method: as §1, §2
A short description of data set [2]: In vitro cytotoxicity (CCK-8) in HepG2.2.15 cells. Particulars: human. Here is the method: (§3) A bottle of HepG2.2.15 or HepAD38 cells in good exponential growth state was taken, washed once by adding 5 mL PBS, and then thereto was added 3 mL trypsin. The sample was digested in a cell culture incubator, and taken out from time to time and observed under a microscope. When the cells just fell off, 1 mL trypsin was discarded. The residual liquid was placed in a cell culture incubator at 37° C. and digested for 8-15 min. The cells were taken out and observed under a microscope (whether the cells were individually round and there was no adhesion between the cells). 5 mL MEM medium was added for cell resuspension. The cells were then subjected to cell counting with a cell counter, diluted with a complete medium, and adjusted to a cell density of 2*10^5 cells/mL. Then the cells were seeded at 100 μL/well in a 96-well plate with a multi-channel pipette (the 96-well plate was coated with 50 μg/mL Collagen I solution in advance), and cultured in a constant temperature CO2 incubator for 24 h. The cells were treated by drug administration, and fresh medium containing the compound was used to replace the spent medium every 3 days. To control wells was added a drug-free medium containing 0.5% DMSO, and a control well containing a common medium was set up. 6 days after the administration, CCK-8 was added at 10 μL/well. After 1 to 2 hours, the absorbance was detected with microplate reader at 450 nm, and the inhibition rate and the CC50 were calculated.

The nature of data set [3]: In vitro cytotoxicity (CCK-8) in HepAD38 cells. As to conditions: human. Here is the method:
as §3

[4] abbreviates: 144 h, anti-HBV activity in HepAD38 cells, 6 days treatment, intracellular capsid HBV DNA by qPCR, read-out: EC50.
Where [5] appears, read: 144 h, anti-HBV activity in HepG2.2.15 cells, 6 days treatment, intracellular capsid HBV DNA by qPCR, read-out: EC50.

A word on the EC50: it is the concentration that produces a half-maximal response. On to `Cc1c(C(=O)Nc2ccc(F)c(C#N)c2)cn(C)c1C(=O)C(=O)NC(C)(C)C` [Example 14, 5-(2-(tert-butylamino)-2-oxoacetyl)-N-(3-cyano-4-fluorophenyl)-1,4-dimethyl-1H-pyrrole-3-carboxamide], for which the concentration for a half-maximal effect (EC50) in the data set on HBV DNA in HepAD38 cells (setting [4]) lay within 10 to 50 nM. As for `Cc1c(C(=O)Nc2ccc(F)c(Cl)c2)c(C)n(C)c1C(=O)C(=O)N[C@@H](C)C(F)(F)F` [Example 37, (S)—N-(3-chloro-4-fluorophenyl)-1,2,4-trimethyl-5-(2-oxo-2-((1,1,1-trifluoroprop-2-yl)amino)acetyl)-1H-pyrrole-3-carboxamide], the EC50 with HBV DNA in HepAD38 cells (setting [4]) is < 10 nM. Regarding `[2H]C([2H])([2H])n1c(C)c(C(=O)Nc2ccc(F)c(C#N)c2)c(C)c1C(=O)C(=O)N[C@@H](C)C(F)(F)F` [Example 60, (S)—N-(3-cyano-4-fluorophenyl)-2,4-dimethyl-1-(methyl-d3)-5-(2-oxo-2-((1,1,1-trifluoroprop-2-yl)amino)acetyl)-1H-pyrrole-3-carboxamide], the EC50 with HBV DNA in HepAD38 cells (setting [4]) is < 10 nM. Regarding `Cc1c(C(=O)Nc2ccc(F)c(C#N)c2)c(F)c(C(=O)C(=O)N[C@@H](C)C(F)(F)F)n1C` [Example 54, (S)—N-(3-cyano-4-fluorophenyl)-4-fluoro-1,2-dimethyl-5-(2-oxo-2-((1,1,1-trifluoroprop-2-yl)amino)acetyl)-1H-pyrrole-3-carboxamide], the EC50 in the data set with HBV DNA in HepAD38 cells (HePAD38, 144 h) was 10 to 50 nM; in data set [1] (HepG2.2.15, 144 h), < 10 nM. As a reminder, the CC50 is the concentration that lowers cell viability or growth by half. As to `Cc1c(C(=O)Nc2ccc(F)cc2)c(C)n(C)c1C(=O)C(=O)N[C@@H](C)C(F)(F)F` [Example 39], in data set [2], the CC50 at 6 days is > 100000 nM. Further, the EC50 (in the data set with HBV DNA in HepAD38 cells (setting [4]); in data set [1] (setting [5])) was < 10 nM in each case.

In the case of `Cc1c(C(=O)Nc2ccc(F)c(C#N)c2)c(C)n(C)c1C(=O)C(=O)N[C@H]1C[C@H](O)C1` [Example 3, N-(3-cyano-4-fluorophenyl)-5-(2-((trans-3-hydroxycyclobutyl)amino)-2-oxoacetyl)-1,2,4-trimethyl-1H-pyrrole-3-carboxamide], the EC50 with HBV DNA in HepAD38 cells (setting [4]) was in the range of 50 to 100 nM. As for `Cc1c(C(=O)Nc2ccc(F)c(C#N)c2)c(C)n(C)c1C(=O)C(=O)N[C@H]1C[C@@H](CO)C1` [Example 10, N-(3-cyano-4-fluorophenyl)-5-(2-((cis-3-(hydroxymethyl)cyclobutyl)amino)-2-oxoacetyl)-1,2,4-trimethyl-1H-pyrrole-3-carboxamide], in the data set on HBV DNA in HepAD38 cells (setting [4]), the EC50 is 10 to 50 nM. The same measure, in the same setting: the value for `Cc1c(C(=O)Nc2ccc(F)c(Cl)c2)c(Cl)n(C)c1C(=O)C(=O)N[C@@H](C)C(F)(F)F` [Example 35, (S)-2-chloro-N-(3-chloro-4-fluorophenyl)-1,4-dimethyl-5-(2-oxo-2-((1,1,1-trifluoroprop-2-yl)amino)acetyl)-1H-pyrrole-3-carboxamide] was < 10 nM. Regarding `Cc1c(C(=O)Nc2ccc(F)c(Cl)c2)c(C)n(C)c1C(=O)C(=O)NC1(C)CCOCC1` [Example 36, N-(3-chloro-4-fluorophenyl)-1,2,4-trimethyl-5-(2-((4-methyltetrahydro-2H-pyran-4-yl)amino)-2-oxoacetyl)-1H-pyrrole-3-carboxamide], in the data set on HBV DNA in HepAD38 cells (setting [4]), the EC50 was < 10 nM. For the molecule `Cc1c(C(=O)Nc2ccc(F)c(C#N)c2)c(C)n(C)c1C(=O)C(=O)N[C@@H]1CCOC1` [Example 21], the CC50 at 6 days in data set [2] and in data set [3] was > 100000 nM in each case. Besides, the EC50 in the data set on HBV DNA in HepAD38 cells (setting [4]) was 10 to 50 nM; in data set [1] (setting [5]), 50 to 100 nM. For `Cc1c(C(=O)Nc2ccc(F)c(C#N)c2)c(Cl)n(C)c1C(=O)C(=O)NC1(C)CCOCC1` [Example 31], in the data set with HBV DNA in HepAD38 cells (setting [4]), the EC50 was < 10 nM. As to `Cc1c(C(=O)Nc2ccc(F)c(C#N)c2)c(Cl)n(C)c1C(=O)C(=O)NC1(C(F)(F)F)COC1` [Example 32], the EC50 in the data set with HBV DNA in HepAD38 cells (setting [4]) was < 10 nM.

On to `Cc1c(C(=O)Nc2ccc(F)c(C#N)c2)c(C)n(C)c1C(=O)C(=O)NC1(C)CC(O)C1` (stereo not drawn) [Example 46, N-(3-cyano-4-fluorophenyl)-5-(2-((3-hydroxy-1-methylcyclobutyl)amino)-2-oxoacetyl)-1,2,4-trimethyl-1H-pyrrole-3-carboxamide], for which the EC50 in the data set with HBV DNA in HepAD38 cells (setting [4]) was 10 to 50 nM; in data set [1] (setting [5]), < 10 nM.

Consider `Cc1c(C(=O)Nc2ccc(F)c(C#N)c2)c(C)n(C)c1C(=O)C(=O)NC1COC1` [Example 5, N-(3-cyano-4-fluorophenyl)-1,2,4-trimethyl-5-(2-(oxetan-3-ylamino)-2-oxoacetyl)-1H-pyrrole-3-carboxamide], for which, in the data set on HBV DNA in HepAD38 cells (setting [4]), the half-maximal effective concentration (EC50) fell in the range of 10 to 50 nM. On to `Cc1c(C(=O)Nc2ccc(F)c(C#N)c2)c(C)n(C)c1C(=O)C(=O)NC1(CO)COC1` [Example 26], for which the CC50 at 6 days in data set [2] and in data set [3] was > 100000 nM in each case. The EC50 (in the data set on HBV DNA in HepAD38 cells (setting [4]); in data set [1] (setting [5])) was 50 to 100 nM in each case.

Turning to `Cc1c(C(=O)Nc2ccc(F)c(C#N)c2)cc(C(=O)C(=O)NC(C)(C)C)n1C` [Example 16, 5-(2-(tert-butylamino)-2-oxoacetyl)-N-(3-cyano-4-fluorophenyl)-1,2-dimethyl-1H-pyrrole-3-carboxamide], the 50% cytotoxic concentration (CC50) at 6 days in data set [3] was > 100000 nM. Further, in data set [1] (setting [5]), the EC50 was < 10 nM. Molecule `CNC(=O)C1(NC(=O)C(=O)c2c(C)c(C(=O)Nc3ccc(F)c(C#N)c3)c(C)n2C)CC(F)(F)C1` [Example 28] displayed an EC50 in the data set with HBV DNA in HepAD38 cells (HePAD38, 144 h) of 10 to 50 nM. Regarding `Cc1c(C(=O)Nc2ccc(F)c(C#N)c2)c(Cl)n(C)c1C(=O)C(=O)NC1(C)CC(O)C1` (stereo not drawn) [Example 55, 2-chloro-N-(3-cyano-4-fluorophenyl)-5-(2-((3-hydroxy-1-methylcyclobutyl)amino)-2-oxoacetyl)-1,4-dimethyl-1H-pyrrole-3-carboxamide], the EC50 in the data set with HBV DNA in HepAD38 cells (HePAD38, 144 h) lay in the range of 10 to 50 nM; in data set [1] (HepG2.2.15, 144 h), 10 to 50 nM. As for `Cn1c(Br)c(C(=O)Nc2ccc(F)c(C#N)c2)c(Br)c1C(=O)C(=O)NC(C)(C)C` [Example 20, 2,4-dibromo-5-(2-(tert-butylamino)-2-oxoacetyl)-N-(3-cyano-4-fluorophenyl)-1-methyl-1H-pyrrole-3-carboxamide], the EC50 fell in the range of 10 to 50 nM with HBV DNA in HepAD38 cells (setting [4]) and 50 to 100 nM in data set [1] (setting [5]).

Turning to `Cc1c(C(=O)Nc2ccc(F)c(C#N)c2)c(Cl)n(C)c1C(=O)C(=O)NC1(C)COC1` [Example 34, 2-chloro-N-(3-cyano-4-fluorophenyl)-1,4-dimethyl-5-(2-((3-methyloxetan-3-yl)amino)-2-oxoacetyl)-1H-pyrrole-3-carboxamide], in the data set on HBV DNA in HepAD38 cells (setting [4]), the half-maximal effective concentration (EC50) lay in the range of 10 to 50 nM. `Cc1c(C(=O)Nc2ccc(F)c(F)c2)c(C)n(C)c1C(=O)C(=O)N[C@@H](C)C(F)(F)F` [Example 38, (S)—N-(3,4-difluorophenyl)-1,2,4-trimethyl-5-(2-oxo-2-((1,1,1-trifluoroprop-2-yl)amino)acetyl)-1H-pyrrole-3-carboxamide]: the EC50 (in the data set with HBV DNA in HepAD38 cells (setting [4]); in data set [1] (setting [5])) was < 10 nM throughout.

On to `Cn1cc(C(=O)Nc2ccc(F)c(C#N)c2)cc1C(=O)C(=O)NC1(C(F)(F)F)COC1` [Example 50, N-(3-cyano-4-fluorophenyl)-1-methyl-5-(2-oxo-2-((3-(trifluoromethyl)oxetan-3-yl)amino)acetyl)-1H-pyrrole-3-carboxamide], for which the 50% effective concentration (EC50) with HBV DNA in HepAD38 cells (setting [4]) was in the range of 50 to 100 nM. `Cc1c(C(=O)Nc2cc(F)c(F)c(F)c2)c(C)n(C)c1C(=O)C(=O)NC1(C)COC1` [Example 47, 1,2,4-trimethyl-5-(2-((3-methyloxetan-3-yl)amino)-2-oxoacetyl)-N-(3,4,5-trifluorophenyl)-1H-pyrrole-3-carboxamide]: the EC50 (with HBV DNA in HepAD38 cells (setting [4]); in data set [1] (setting [5])) was < 10 nM throughout. For the molecule `Cc1c(C(=O)Nc2ccc(F)c(C#N)c2)c(C)n(C)c1C(=O)C(=O)N[C@H]1C[C@@H](O)C1` [Example 4, N-(3-cyano-4-fluorophenyl)-5-(2-((cis-3-hydroxycyclobutyl)amino)-2-oxoacetyl)-1,2,4-trimethyl-1H-pyrrole-3-carboxamide], the EC50 in the data set on HBV DNA in HepAD38 cells (setting [4]) was 10 to 50 nM.
